Measurements taken from patent publication US8034931B2, “Process for producing substituted aminoquinazolinone derivative, intermediate therefor, and pest control agent” (Nihon Nohyaku Co., Ltd., priority 2003, dated 2011).

How the values were obtained:
Assay type in all cases: in vivo
[1] = test system: Greenhouse Whitefly (Trialeuroddes vaporariorum); test: Insecticidal effect on greenhouse whitefly, sprayed tomato leaf (Test Examples 2 and 4); details: for Test Example 2: insecticidal effect (corrected mortality): 100 ppm liquid chemical, sprayed tomato leaf, 20 adult whiteflies, four days after the inoculation
Text: Insecticidal Effect on Greenhouse Whitefly (Trialeuroddes vaporariorum)
A preparation containing each compound of the present invention listed in Tables 2 to 4 or each comparative compound as an active ingredient was dispersed in and diluted with water to obtain a 100 ppm liquid chemical. A tomato leaf set in a 20-ml vial with its stalk immersed in water was sprayed with the liquid chemical with a spray gun on a turntable. After air-dryness, the treated leaf was placed in a glass cylinder and inoculated with 20 adult greenhouse whiteflies. After the treatment, the glass cylinder was placed in a greenhouse. Four days after the inoculation, the living insects were counted. The corrected mortality was calculated according to the following equation and the insecticidal effect was judged according to the criterion shown below.
[formula] Criterion for Judgment:
Insecticidal Effect on Greenhouse (Trialeuroddes vaporariorum) at a Low Dosage
The same test as in Test Example 2 was carried out except for changing the concentration of the liquid chemical to 3 ppm.

[2] = test system: White Peach Scale (Pseudaulacaspis pentagona); test: Insecticidal effect on white peach scale, sprayed potato tuber (Test Examples 3 and 5); details: 100 ppm liquid chemical, potato tuber with first-instar larvae, fourteen days after the treatment
Text: Insecticidal Effect on White Peach Scale (Pseudaulacaspis pentagona)
A preparation containing each compound of the present invention listed in Tables 2 to 4 or each comparative compound as an active ingredient was dispersed in and diluted with water to obtain a 100 ppm liquid chemical. A potato tuber with first-instar larvae of white peach scale as parasites was sprayed with the liquid chemical with a spray gun. Fourteen days after the treatment, the living insects were counted. In the same manner as in Test Example 2, the corrected mortality was calculated and the insecticidal effect was judged.
Insecticidal Effect on White Peach Scale (Pseudaulacaspis pentagona) at a Low Dosage
The same test as in Test Example 3 was carried out except for changing the concentration of the liquid chemical to 30 ppm.

[3] = test system: Green Peach Aphid (Myzus persicae); test: Insecticidal effect on green peach aphid, foliar spray on potted Chinese cabbage (Test Example 1); details: 500 ppm liquid chemical, sprayed on Chinese cabbage stalks and leaves, six days after the spraying
Text: Insecticidal Effect on Green Peach Aphid (Myzus persicae)
A Chinese cabbage plant was planted in each of plastic pots with a diameter of 8 cm and a height of 8 cm, and green peach aphids were propagated on the plant, after which the parasites in each pot were counted. A preparation containing each compound of the present invention listed in Tables 2 to 4 or each comparative compound as an active ingredient was dispersed in and diluted with water to obtain a 500 ppm liquid chemical. The stalks and leaves of the potted Chinese cabbage plants were sprayed with the liquid chemical and air-dried, and then the pots were stored in a greenhouse. Six days after the spraying, green peach aphids parasitic on each Chinese cabbage plant were counted and the control efficacy was calculated by the following equation, whereby the insecticidal effect was judged according to the criterion shown below. Control efficacy=100−{(T×Ca)/(Ta×C)}×100 • Ta: number of parasites before spraying in treated group, • T: number of parasites after spraying in treated group, • Ca: number of parasites before spraying in untreated group, • C: number of parasites after spraying in untreated group.

SMILES	Test Example 2: insecticidal effect (corrected mortality) [1]	Test Example 3: insecticidal effect (corrected mortality) [2]	Test Example 1: insecticidal effect (control efficacy) [3]	Test Example 4: controlling effect at a low dosage (corrected mortality) ([1]; 3 ppm liquid chemical, otherwise same as Test Example 2)
COCC(=O)N1C(=O)N(N=Cc2cccnc2)Cc2cc(C(F)(C(F)(F)F)C(F)(F)F)ccc21 [compound 15]	A (Corrected mortality 100%)	A (Corrected mortality 100%)	A (Control efficacy 100%)	–
CC(=O)N1C(=O)N(N=Cc2cccnc2)Cc2cc(C(F)(C(F)(F)F)C(F)(F)F)ccc21 [compound No. 8, 1-acetyl-3-(3-pyridylmethylideneamino)-3,4-dihydro-6-[1,2,2,2-tetrafluoro-1-(trifluoromethyl)ethyl]-2(1H)-quinazolinone]	A (Corrected mortality 100%)	A (Corrected mortality 100%)	A (Control efficacy 100%)	–
O=C(c1ccccc1C(F)(F)F)N1C(=O)N(N=Cc2cccnc2)Cc2cc(C(F)(C(F)(F)F)C(F)(F)F)ccc21 [compound 25]	A (Corrected mortality 100%)	A (Corrected mortality 100%)	A (Control efficacy 100%)	–
CC(=O)N1C(=O)N(NCc2cccnc2)Cc2cc(Br)ccc21 [B, 1-acetyl-3-(3-pyridylmethylamino)-3,4-dihydro-6-bromo-2(1H)-quinazolinone, reference compound]	C (Corrected mortality 89-80%)	C (Corrected mortality 89-80%)	A (Control efficacy 100%)	D (Corrected mortality 79-50%)
CN1C(=O)N(N=Cc2cccnc2)Cc2cc(C(F)(C(F)(F)F)C(F)(F)F)ccc21 [compound No. 1, 1-methyl-3-(3-pyridylmethylideneamino)-3,4-dihydro-6-[1,2,2,2-tetrafluoro-1-(trifluoromethyl)ethyl]-2(1H)-quinazolinone]	A (Corrected mortality 100%)	A (Corrected mortality 100%)	A (Control efficacy 100%)	–
O=C(c1ccc(F)cc1)N1C(=O)N(N=Cc2cccnc2)Cc2cc(C(F)(C(F)(F)F)C(F)(F)F)ccc21 [compound 28]	A (Corrected mortality 100%)	A (Corrected mortality 100%)	A (Control efficacy 100%)	–
Cc1cccc(C(=O)N2C(=O)N(N=Cc3cccnc3)Cc3cc(C(F)(C(F)(F)F)C(F)(F)F)ccc32)c1 [compound 30]	A (Corrected mortality 100%)	A (Corrected mortality 100%)	A (Control efficacy 100%)	–
O=C(c1ccc(-c2ccccc2)cc1)N1C(=O)N(N=Cc2cccnc2)Cc2cc(C(F)(C(F)(F)F)C(F)(F)F)ccc21 [compound 32]	A (Corrected mortality 100%)	A (Corrected mortality 100%)	A (Control efficacy 100%)	–
CCCN1C(=O)N(N=Cc2cccnc2)Cc2cc(C(F)(C(F)(F)F)C(F)(F)F)ccc21 [compound No. 3]	A (Corrected mortality 100%)	A (Corrected mortality 100%)	A (Control efficacy 100%)	–
CCCCC(=O)N1C(=O)N(N=Cc2cccnc2)Cc2cc(C(F)(C(F)(F)F)C(F)(F)F)ccc21 [compound 12]	A (Corrected mortality 100%)	A (Corrected mortality 100%)	A (Control efficacy 100%)	–
